Reference: patent US12365696B2, “Small-molecule focal adhesion kinase (FAK) inhibitors” (DANA-FARBER CANCER INSTITUTE, INC., priority 2019, dated 2025)
Read-outs that look alike come from different tables or passages of the source.

Legend:
Test in all cases: KINOMEscan
Format in all cases: binding
DMPK2 = DMPK2 (Homo sapiens (Human), UniProt Q6DT37); conditions: DMPK2, 10000 nM; read-out: Percent Control
IKK-alpha = IKK-alpha (Homo sapiens (Human), UniProt O15111); conditions: 10000 nM, read-out: Percent Control
NIK = NIK (Homo sapiens (Human), UniProt Q99558); conditions: 10000 nM, read-out: Percent Control
[1] = biological target: TYK2(JH2domain-pseudokinase) (Homo sapiens (Human), UniProt P29597); conditions: 10000 nM, read-out: Percent Control
PKNB(M. tuberculosis) = PKNB(M. tuberculosis) (Mycobacterium tuberculosis (strain ATCC 25618 / H37Rv), UniProt P9WI81); conditions: read-out: Percent Control
PIK3CA(H1047L) = PIK3CA(H1047L) (Homo sapiens (Human), UniProt P42336, H1047L); conditions: 10000 nM, read-out: Percent Control
Chain of PIK3CA(H1047L) (P42336 whole entry H1047L): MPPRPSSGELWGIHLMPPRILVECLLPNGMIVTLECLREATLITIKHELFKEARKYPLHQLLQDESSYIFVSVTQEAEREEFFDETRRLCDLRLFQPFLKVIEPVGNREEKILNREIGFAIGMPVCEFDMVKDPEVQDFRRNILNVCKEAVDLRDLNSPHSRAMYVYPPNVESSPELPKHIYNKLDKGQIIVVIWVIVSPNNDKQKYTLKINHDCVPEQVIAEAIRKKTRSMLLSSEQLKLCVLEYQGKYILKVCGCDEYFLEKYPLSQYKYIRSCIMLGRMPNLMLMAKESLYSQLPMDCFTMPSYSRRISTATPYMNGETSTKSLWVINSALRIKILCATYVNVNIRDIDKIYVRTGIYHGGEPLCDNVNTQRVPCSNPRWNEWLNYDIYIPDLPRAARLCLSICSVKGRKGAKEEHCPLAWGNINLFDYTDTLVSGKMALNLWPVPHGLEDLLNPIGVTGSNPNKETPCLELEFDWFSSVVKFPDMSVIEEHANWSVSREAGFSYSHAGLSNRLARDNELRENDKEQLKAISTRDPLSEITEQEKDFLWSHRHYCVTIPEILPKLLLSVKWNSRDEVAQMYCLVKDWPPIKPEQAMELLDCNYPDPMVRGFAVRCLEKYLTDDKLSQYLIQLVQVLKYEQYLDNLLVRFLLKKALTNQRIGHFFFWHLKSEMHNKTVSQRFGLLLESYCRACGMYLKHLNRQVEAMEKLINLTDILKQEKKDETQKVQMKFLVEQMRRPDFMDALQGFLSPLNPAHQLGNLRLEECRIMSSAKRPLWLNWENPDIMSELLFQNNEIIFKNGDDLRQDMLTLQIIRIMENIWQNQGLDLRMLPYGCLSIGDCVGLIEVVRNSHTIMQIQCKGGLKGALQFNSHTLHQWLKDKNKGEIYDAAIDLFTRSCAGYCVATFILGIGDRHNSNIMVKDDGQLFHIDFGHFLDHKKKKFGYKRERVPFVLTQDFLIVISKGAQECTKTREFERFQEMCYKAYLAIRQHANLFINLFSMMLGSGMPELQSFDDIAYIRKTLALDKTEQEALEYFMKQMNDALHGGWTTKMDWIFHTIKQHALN

DMPK = DMPK (Homo sapiens (Human), UniProt Q09013); conditions: 10000 nM, read-out: Percent Control
Chain of DMPK (Q09013 whole entry): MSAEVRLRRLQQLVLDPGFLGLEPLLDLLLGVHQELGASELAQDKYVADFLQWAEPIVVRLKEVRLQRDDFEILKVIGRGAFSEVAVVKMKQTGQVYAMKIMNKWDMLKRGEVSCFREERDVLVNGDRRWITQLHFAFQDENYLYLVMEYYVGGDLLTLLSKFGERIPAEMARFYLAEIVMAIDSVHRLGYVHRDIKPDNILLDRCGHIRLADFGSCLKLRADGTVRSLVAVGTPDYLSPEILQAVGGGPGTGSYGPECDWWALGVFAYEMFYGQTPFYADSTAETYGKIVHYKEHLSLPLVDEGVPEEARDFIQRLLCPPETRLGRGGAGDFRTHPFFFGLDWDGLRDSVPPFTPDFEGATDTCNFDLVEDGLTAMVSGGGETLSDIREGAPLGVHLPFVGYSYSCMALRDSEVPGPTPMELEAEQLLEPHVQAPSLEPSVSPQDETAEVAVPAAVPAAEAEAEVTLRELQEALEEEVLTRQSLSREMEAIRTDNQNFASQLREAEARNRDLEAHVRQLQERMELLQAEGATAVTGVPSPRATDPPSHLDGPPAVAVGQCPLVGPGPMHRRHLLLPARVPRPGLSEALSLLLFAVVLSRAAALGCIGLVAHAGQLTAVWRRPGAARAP

IRAK4 = IRAK4 (Homo sapiens (Human), UniProt Q9NWZ3); conditions: IRAK4, 10000 nM; read-out: Percent Control
Chain of IRAK4 (Q9NWZ3 whole entry): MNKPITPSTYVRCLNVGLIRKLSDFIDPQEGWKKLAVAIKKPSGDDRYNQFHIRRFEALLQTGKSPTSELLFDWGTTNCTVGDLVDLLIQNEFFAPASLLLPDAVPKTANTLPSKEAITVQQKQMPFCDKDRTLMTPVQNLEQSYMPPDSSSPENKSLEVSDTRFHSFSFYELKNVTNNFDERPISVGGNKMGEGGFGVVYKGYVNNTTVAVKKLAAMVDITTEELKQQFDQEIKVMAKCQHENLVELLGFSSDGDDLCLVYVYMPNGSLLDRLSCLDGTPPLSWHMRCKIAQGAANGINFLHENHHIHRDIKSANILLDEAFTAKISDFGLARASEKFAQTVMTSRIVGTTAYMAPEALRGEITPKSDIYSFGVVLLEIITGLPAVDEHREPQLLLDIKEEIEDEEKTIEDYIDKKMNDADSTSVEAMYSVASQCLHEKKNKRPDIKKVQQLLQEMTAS

MAP3K1 = MAP3K1 (Homo sapiens (Human), UniProt Q13233); conditions: MAP3K1, 10000 nM; read-out: Percent Control
PFTAIRE2 = PFTAIRE2 (Homo sapiens (Human), UniProt Q96Q40); conditions: PFTAIRE2, 10000 nM; read-out: Percent Control
CLK3 = CLK3 (Homo sapiens (Human), UniProt P49761); conditions: CLK3, 10000 nM; read-out: Percent Control
ACVR1 = ACVR1 (Homo sapiens (Human), UniProt Q04771); conditions: ACVR1, 10000 nM; read-out: Percent Control
CSNK1G3 = CSNK1G3 (Homo sapiens (Human), UniProt Q9Y6M4); conditions: CSNK1G3, 10000 nM; read-out: Percent Control
AMPK-alpha2 = AMPK-alpha2 (Homo sapiens (Human), UniProt P54646); conditions: AMPK-alpha2, 10000 nM; read-out: Percent Control
PHKG2 = PHKG2 (Homo sapiens (Human), UniProt P15735); conditions: PHKG2, 10000 nM; read-out: Percent Control
BMPR1A = BMPR1A (Homo sapiens (Human), UniProt P36894); conditions: 10000 nM, read-out: Percent Control
TIE1 = TIE1 (Homo sapiens (Human), UniProt P35590); conditions: TIE1, 10000 nM; read-out: Percent Control
MAP3K3 = MAP3K3 (Homo sapiens (Human), UniProt Q99759); conditions: MAP3K3, 10000 nM; read-out: Percent Control
[2] = biological target: ABL1(M351T)-phosphorylated (Homo sapiens (Human), UniProt P00519, M351T); conditions: 10000 nM, read-out: Percent Control
MAP3K4 = MAP3K4 (Homo sapiens (Human), UniProt Q9Y6R4); conditions: MAP3K4, 10000 nM; read-out: Percent Control
MYO3A = MYO3A (Homo sapiens (Human), UniProt Q8NEV4); conditions: 10000 nM, read-out: Percent Control
Chain of MYO3A (Q8NEV4 whole entry): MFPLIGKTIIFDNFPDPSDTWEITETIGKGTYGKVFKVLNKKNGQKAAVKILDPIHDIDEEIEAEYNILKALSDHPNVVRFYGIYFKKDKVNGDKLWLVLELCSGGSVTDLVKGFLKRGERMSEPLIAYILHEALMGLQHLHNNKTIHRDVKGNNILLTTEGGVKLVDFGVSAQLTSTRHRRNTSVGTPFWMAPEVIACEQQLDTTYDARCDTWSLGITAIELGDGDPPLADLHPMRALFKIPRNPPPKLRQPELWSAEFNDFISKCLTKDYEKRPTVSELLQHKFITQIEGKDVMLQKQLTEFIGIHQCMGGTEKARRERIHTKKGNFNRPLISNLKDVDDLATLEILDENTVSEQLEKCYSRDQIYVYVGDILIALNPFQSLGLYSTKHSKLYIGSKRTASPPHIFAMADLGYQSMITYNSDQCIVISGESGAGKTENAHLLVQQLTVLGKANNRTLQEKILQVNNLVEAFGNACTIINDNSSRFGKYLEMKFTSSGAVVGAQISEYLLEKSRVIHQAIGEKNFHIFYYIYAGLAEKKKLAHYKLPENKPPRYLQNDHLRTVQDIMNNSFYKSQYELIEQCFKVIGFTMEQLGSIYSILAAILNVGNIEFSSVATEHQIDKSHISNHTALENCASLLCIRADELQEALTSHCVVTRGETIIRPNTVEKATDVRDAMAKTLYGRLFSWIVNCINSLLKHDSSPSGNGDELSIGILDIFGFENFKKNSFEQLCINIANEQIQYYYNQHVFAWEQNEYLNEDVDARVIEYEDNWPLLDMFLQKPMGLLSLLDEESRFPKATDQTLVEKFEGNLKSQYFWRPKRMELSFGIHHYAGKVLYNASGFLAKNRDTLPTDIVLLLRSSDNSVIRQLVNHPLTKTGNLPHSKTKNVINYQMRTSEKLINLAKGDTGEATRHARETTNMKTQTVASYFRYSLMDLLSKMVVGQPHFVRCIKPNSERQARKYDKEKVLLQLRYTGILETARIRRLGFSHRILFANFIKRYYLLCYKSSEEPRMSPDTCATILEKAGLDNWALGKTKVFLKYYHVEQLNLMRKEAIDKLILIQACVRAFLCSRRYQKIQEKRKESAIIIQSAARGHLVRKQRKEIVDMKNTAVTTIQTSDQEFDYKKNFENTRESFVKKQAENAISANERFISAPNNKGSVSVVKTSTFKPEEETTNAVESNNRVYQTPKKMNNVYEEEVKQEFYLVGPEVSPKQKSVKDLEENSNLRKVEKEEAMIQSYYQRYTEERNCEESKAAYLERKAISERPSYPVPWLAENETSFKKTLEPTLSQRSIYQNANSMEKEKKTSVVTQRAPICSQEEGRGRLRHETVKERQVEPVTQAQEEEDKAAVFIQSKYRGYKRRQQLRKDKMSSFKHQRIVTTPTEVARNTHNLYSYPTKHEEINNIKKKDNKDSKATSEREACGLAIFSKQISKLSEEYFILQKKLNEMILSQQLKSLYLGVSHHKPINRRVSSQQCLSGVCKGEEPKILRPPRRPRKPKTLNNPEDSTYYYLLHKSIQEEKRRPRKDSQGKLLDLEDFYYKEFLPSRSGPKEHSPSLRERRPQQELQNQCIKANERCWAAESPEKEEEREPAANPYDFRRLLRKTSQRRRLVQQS

AURKC = AURKC (Homo sapiens (Human), UniProt Q9UQB9); conditions: 10000 nM, read-out: Percent Control
ERK8 = ERK8 (Homo sapiens (Human), UniProt Q8TD08); conditions: ERK8, 10000 nM; read-out: Percent Control
MET(Y1235D) = MET(Y1235D) (Homo sapiens (Human), UniProt P08581, Y1235D); conditions: 10000 nM, read-out: Percent Control
NEK2 = NEK2 (Homo sapiens (Human), UniProt P51955); conditions: NEK2, 10000 nM; read-out: Percent Control
MAP4K4 = MAP4K4 (Homo sapiens (Human), UniProt O95819); conditions: MAP4K4, 10000 nM; read-out: Percent Control
BRSK1 = BRSK1 (Homo sapiens (Human), UniProt Q8TDC3); conditions: BRSK1, 10000 nM; read-out: Percent Control
MTOR = MTOR (Homo sapiens (Human), UniProt P42345); conditions: 10000 nM, read-out: Percent Control
PAK7 = PAK7 (Homo sapiens (Human), UniProt Q9P286); conditions: PAK7, 10000 nM; read-out: Percent Control
Chain of PAK7 (Q9P286 whole entry): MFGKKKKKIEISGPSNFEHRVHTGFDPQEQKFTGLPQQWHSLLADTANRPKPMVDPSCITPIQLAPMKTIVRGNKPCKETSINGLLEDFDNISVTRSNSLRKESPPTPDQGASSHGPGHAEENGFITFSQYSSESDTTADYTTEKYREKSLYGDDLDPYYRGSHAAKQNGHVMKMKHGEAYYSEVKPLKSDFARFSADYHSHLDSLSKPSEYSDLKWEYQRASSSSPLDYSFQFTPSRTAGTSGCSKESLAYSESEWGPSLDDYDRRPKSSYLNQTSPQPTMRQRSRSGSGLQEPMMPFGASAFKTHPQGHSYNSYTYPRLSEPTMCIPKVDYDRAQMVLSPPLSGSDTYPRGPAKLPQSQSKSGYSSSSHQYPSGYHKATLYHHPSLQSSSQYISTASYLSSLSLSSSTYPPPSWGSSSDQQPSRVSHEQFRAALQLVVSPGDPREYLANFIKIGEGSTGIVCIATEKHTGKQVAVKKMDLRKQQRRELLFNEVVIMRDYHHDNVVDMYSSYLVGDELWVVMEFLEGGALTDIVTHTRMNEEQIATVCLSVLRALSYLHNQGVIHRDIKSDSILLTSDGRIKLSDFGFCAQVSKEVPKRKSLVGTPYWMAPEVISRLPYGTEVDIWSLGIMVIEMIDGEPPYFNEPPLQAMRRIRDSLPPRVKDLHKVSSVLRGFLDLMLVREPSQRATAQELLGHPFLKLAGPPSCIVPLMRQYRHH

p38-delta = p38-delta (Homo sapiens (Human), UniProt O15264); conditions: 10000 nM, read-out: Percent Control
FLT3(ITD) = conditions: 10000 nM
BLK = BLK (Homo sapiens (Human), UniProt P51451); conditions: 10000 nM, read-out: Percent Control
NEK6 = NEK6 (Homo sapiens (Human), UniProt Q9HC98); conditions: NEK6, 10000 nM; read-out: Percent Control
Chain of NEK6 (Q9HC98 whole entry): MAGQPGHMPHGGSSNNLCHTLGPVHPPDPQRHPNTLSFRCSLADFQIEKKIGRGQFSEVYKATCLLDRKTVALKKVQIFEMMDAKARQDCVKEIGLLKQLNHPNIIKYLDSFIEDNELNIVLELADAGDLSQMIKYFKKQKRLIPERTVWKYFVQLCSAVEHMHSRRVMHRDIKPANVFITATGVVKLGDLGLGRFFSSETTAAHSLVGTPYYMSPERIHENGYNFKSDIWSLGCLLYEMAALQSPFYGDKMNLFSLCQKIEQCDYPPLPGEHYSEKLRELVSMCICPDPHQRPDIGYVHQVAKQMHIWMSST

LATS2 = LATS2 (Homo sapiens (Human), UniProt Q9NRM7); conditions: LATS2, 10000 nM; read-out: Percent Control

SMILES | remaining binding at 10 µM (DMPK2) [%] | remaining binding at 10 µM (IKK-alpha) [%] | remaining binding at 10 µM (NIK) [%] | remaining binding at 10 µM [1] [%] | remaining binding at 10 µM (PIK3CA(H1047L)) [%] | remaining binding at 10 µM (DMPK) [%] | remaining binding at 10 µM (IRAK4) [%] | remaining binding at 10 µM (MAP3K1) [%] | remaining binding at 10 µM (PFTAIRE2) [%] | remaining binding at 10 µM (CLK3) [%] | remaining binding at 10 µM (ACVR1) [%] | remaining binding at 10 µM (CSNK1G3) [%] | remaining binding at 10 µM (AMPK-alpha2) [%] | remaining binding at 10 µM (PHKG2) [%] | remaining binding at 10 µM (BMPR1A) [%] | remaining binding at 10 µM (TIE1) [%] | remaining binding at 10 µM (MAP3K3) [%] | remaining binding at 10 µM [2] [%] | remaining binding at 10 µM (MAP3K4) [%] | remaining binding at 10 µM (MYO3A) [%] | other results
COc1cc(N2CCC(N3CCN(C)CC3)CC2)ccc1Nc1ncc2c(n1)N(C)c1sc(C)nc1C(=O)N2 [Compound 3, 6-((2-methoxy-4-(4-(4-methylpiperazin-1-yl)piperidin-1-yl)phenyl)amino)-2,4-dimethyl-4,9-dihydro-10H-pyrimido[5,4-b]thiazolo[5,4-e][1,4]diazepin-10-one] | 91 | 100 | 85 | 100 | 66 | 99 | 100 | 100 | 86 | 97 | 93 | 87 | 83 | 69 | 81 | 80 | 100 | 19 | 73 | 79 | remaining binding at 10 µM (PKNB(M. tuberculosis)): 91%; remaining binding at 10 µM (AURKC): 95%; remaining binding at 10 µM (ERK8): 86%; remaining binding at 10 µM (MET(Y1235D)): 90%; remaining binding at 10 µM (NEK2): 84%; remaining binding at 10 µM (MAP4K4): 79%; remaining binding at 10 µM (BRSK1): 69%; remaining binding at 10 µM (MTOR): 85%; remaining binding at 10 µM (PAK7): 97%; remaining binding at 10 µM (p38-delta): 82%; Percent Control (FLT3(ITD)): 83%; remaining binding at 10 µM (BLK): 55%; remaining binding at 10 µM (NEK6): 78%; remaining binding at 10 µM (LATS2): 100%
COc1cc(N2CCC(N3CCN(C)CC3)CC2)ccc1Nc1ncc2c(n1)N(C)c1sc(C)nc1C(=O)N2C [Compound 5, 6-((2-methoxy-4-(4-(4-methylpiperazin-1-yl)piperidin-1-yl)phenyl)amino)-2,4,9-trimethyl-4,9-dihydro-10H-pyrimido[5,4-b]thiazolo[5,4-e][1,4]diazepin-10-one] | 93 | 100 | 93 | 100 | 80 | 100 | 88 | 100 | 100 | 97 | 93 | 100 | 100 | 38 | 97 | 96 | 100 | 95 | 100 | 100 | remaining binding at 10 µM (PKNB(M. tuberculosis); PKNB(M. tuberculosis), 10000 nM): 98%; remaining binding at 10 µM (AURKC): 100%; remaining binding at 10 µM (ERK8): 100%; remaining binding at 10 µM (MET(Y1235D)): 98%; remaining binding at 10 µM (NEK2): 100%; remaining binding at 10 µM (MAP4K4): 100%; remaining binding at 10 µM (BRSK1): 100%; remaining binding at 10 µM (MTOR): 31%; remaining binding at 10 µM (PAK7): 88%; remaining binding at 10 µM (p38-delta): 100%; Percent Control (FLT3(ITD)): 100%; remaining binding at 10 µM (BLK): 95%; remaining binding at 10 µM (NEK6): 90%; remaining binding at 10 µM (LATS2): 98%
